Measured values as given in patent publication US12382888B2, “Compositions and methods for modulating immunity in plants” (Boyce Thompson Institute for Plant Research, Inc., priority 2013, dated 2025).
Entries after “also recorded” stand apart in the source; their conditions may differ.

Assays:
[1] = tested on: Heterodera schachtii; assay: Arabidopsis cyst nematode infection assay; type: in vivo
[2] = tested on: E. coli; assay: Disk-diffusion assay, E. coli; settings: up to 10 mM
[3] = tested on: Pseudomonas syringae pv. tomato DC3000 (Pst); assay: Resistance of Arabidopsis to Pseudomonas syringae pv. tomato DC3000 (bacterial growth); type: in vivo; settings: for protection against Pst DC3000: compared with 1 μM
[4] = tested on: EBF1, ERS1, ERS2, ERF1, ACO1, SAUR34, DRM2, AUX1, IAA6 and ARF19; assay: Ethylene- and auxin-responsive gene markers in Arabidopsis leaves after root pretreatment (qRT-PCR); type: in vivo, Arabidopsis thaliana; settings: root treatment 1 μM, 24 hpt
[5] = tested on: PR-1, FRK1, PHI1, WRKY53; assay: Defense gene expression in Arabidopsis roots (qRT-PCR)
Procedure: FIG. 18C: Eight days old Arabidopsis seedlings were treated by root bathing using the indicated concentrations of ascr #18. Root samples were collected 6 hours after treatment for RNA extraction. Transcript levels of PHI1, FRK1 and WRKY53 were determined by qRT-PCR and normalized to endogenous UFP (AT4G01000) . *P≤0.05; **P≤0.005; ***P≤0.0005, two-tailed 1-test.
Roots of Arabidopsis seedlings were treated with water (CK) or with various ascr #18 concentrations for 48 hours. Roots were then collected and used to extract RNA for qRT-PCR analysis.
For the RNA analyses in roots, Arabidopsis roots were collected from 20-30 seedlings from each treatment and mRNA was isolated using the Dynabeads mRNA DIRECT Kit (Life Technologies). DNA contamination was removed by treatment with DNase I (Life Technologies). First-strand cDNA was synthesized from 50 ng of mRNA using ProtoScript II Reverse Transcriptase (NEB). […] All assays consisted of three technical replicates for each RNA sample. Data was analyzed using the iCycler iQ Real-Time PCR Detection System Software version 3.0a (Bio-Rad). The Arabidopsis UFP gene (AT4G01000) was used as an endogenous reference gene. PCR was started with an activation and DNA denaturation step (95° C. for 3 minutes), then followed by 40 cycles of 95° C. for 20 seconds and 60° C. for 40 seconds.

[6] = tested on: M. incognita; assay: Arabidopsis root knot nematode infection assay; type: in vivo, Meloidogyne incognita
[7] = tested on: PR-1; assay: PR-1 protein/transcript induction in tobacco leaves (immunoblot, RT-PCR)
Procedure: Four-weeks old tobacco plants were syringe-infiltrated with buffer, SA, or a mixture of SA (50 μM or 500 μM) and decreasing concentration of ascr #18 (10, 0.3, and 0.01 μM). PR-1 was assayed 48 hours after treatment by immunoblot using anti-PR-1 antibody.
PR-1 expression was analyzed 48 hp SA treatment.
To determine whether ascr #18 affects levels of the prototypic SA-responsive PR-1 gene/protein, tobacco plants were treated with varying concentrations of ascr #18 in the presence or absence of SA (FIG. 2).

[8] = tested on: PR-1; assay: PR-1 gene expression in barley leaves (qRT-PCR)
Procedure: Barley leaves were sprayed with the indicated concentrations of ascr #18 48 hours before inoculation with Blumeria graminis f. sp. hordei (Bgh). […] Leaves of barley plants were sprayed with water or ascr #18 (1 μM). Plants were inoculated with Bgh 48 hours post treatment. Leaves were collected at 16 hpi and used to extract RNA for qRT-PCR analysis. Data are average±SD (n=3, where n denotes the number of independent samples). (*P≤0.05; **P≤0.005; ***P≤0.0005, two-tailed t-test).
Leaves of barley plants were sprayed with various concentrations of ascr #18 or water (mock) for 48 hours. 48 hours post treatment plants were inoculated with Bgh. Leaves were collected at 16 hpi and used to extract RNA for qRT-PCR analysis.
For barley analyses, RNA extraction from infected barley leaves was performed with TRIzol (Invitrogen) following the manufacturer's instructions. Freshly extracted mRNA was used for cDNA synthesis using QuantiTect Reverse-Transcription kit (Qiagen). cDNA was stored at −20° C. For qRT-PCR, 50 ng of cDNA was used as template in the Applied Biosystems 7500 FAST real time PCR system. Amplifications were performed in 7.5 μL of SYBER green JumpStart Taq ReadyMix (Sigma-Aldrich) with 0.5 pmol oligonucleotides. […] Ubiquitin was used as an endogenous reference gene.

[9] = tested on: Pseudomonas syringae pv. tabaci; assay: Resistance of tobacco to Pseudomonas syringae pv. tabaci (bacterial growth); settings: for resistance to P. syringae pv tabaci: 2 dpi
[10] = tested on: Blumeria graminis f. sp. hordei (Bgh); assay: Resistance of barley to Blumeria graminis f. sp. hordei (pustule count); settings: barley cv. Golden Promise; leaves sprayed 0.01 μM to 1 μM 48 hours before inoculation; 7 dpi
Procedure: Barley leaves were sprayed with the indicated concentrations of ascr #18 48 hours before inoculation with Blumeria graminis f. sp. hordei (Bgh). Photograph of barley leave segments infected with Bgh were taken at 7 days post inoculation (dpi). FIG. 15C: Provides the number of Bgh pustules counted at 7 dpi. […] Leaves of barley plants were sprayed with water or ascr #18 (1 μM). Plants were inoculated with Bgh 48 hours post treatment. […] Data are average±SD (n=3, where n denotes the number of independent samples). (*P≤0.05; **P≤0.005; ***P≤0.0005, two-tailed t-test).
For barley cv. Golden Promise, 7-days old seedlings were pretreated by spraying with different concentrations of ascr #18. Inoculation with Bgh was done 48 hours post treatment using a detached leaflet assay. Briefly 10 leaves from 5 different plants per treatment were cut and transferred to Petri dishes containing 1% water agar. Leaves were then inoculated with Bgh. Water was used as mock control. Pustules were counted 7 dpi.

[11] = tested on: GRAS4, GST, β-1,3-glucanase, AOS2; assay: Defense response genes in tomato leaves after root pretreatment (qRT-PCR); type: in vivo, tomato (Solanum lycopersicum); settings: root treatment 10 nM
[12] = tested on: PDF1.2; assay: PDF1.2 expression in Arabidopsis leaves (semi-quantitative PCR / qRT-PCR)
[13] = tested on: B. subtilis; assay: Disk-diffusion assay, B. subtilis; settings: up to 10 mM
[14] = tested on: FRK1, PHI1, PR-4, AOS, GSTF6, LOX2; assay: Defense gene markers in Arabidopsis leaves after root pretreatment (qRT-PCR); type: in vivo, Arabidopsis thaliana; settings: root treatment 1 μM
[15] = tested on: Pst DC3000; assay: Resistance of tomato to Pst DC3000 (bacterial growth); type: in vivo, Pseudomonas syringae pv. tomato
[16] = tested on: MPK3 and MPK6; assay: MAPK activation phosphorylation in Arabidopsis leaves (immunoblot); type: in vivo, Arabidopsis thaliana; settings: leaf infiltration 1 μM; 10 minutes
[17] = tested on: Botrytis cinerea; assay: Resistance of tomato to Botrytis cinerea B05.01 (detached leaflet assay); type: in vivo; settings: tomato cv. M82; root immersion 0.01 μM 48 hours before
[18] = tested on: Aspergillus fumigatus; assay: Disk-diffusion assay, Aspergillus fumigatus; settings: up to 10 mM
[19] = tested on: tomato suspension cells; type: cell-based
[20] = tested on: PR-1; assay: PR-1 expression in Arabidopsis leaves (semi-quantitative PCR / qRT-PCR)
[21] = root pretreatment 10 nM, 48 hours
[22] = root treatment of seedlings, various concentrations, 48 hours
[23] = leaf infiltration 0.01 μM or 0.3 μM, 24 hpt, qRT-PCR
[24] = leaf pretreatment by syringe infiltration, 0.01, 0.3, and 10 μM

CC1O[C@@H](O[C@@H](C)CCCCCCCCC(=O)O)C(O)C[C@H]1O (stereo in doubt) [ascr #18, (10R)-(3′R,5′R-dihydroxy-6′S-methyl-(2H)-tetrahydropyran-2-yloxy)-undecanoic Acid]
concentration providing best protection against root infection ([1]; Arabidopsis, cyst nematodes): 10 nM | resistance to H. schachtii (females counted) ([1]; media containing 50 nM or 600 nM, 19 dpi): enhances resistance | infection with cyst nematode H. schachtii [1, 21]: significantly reduced infection | growth inhibition [2]: no growth inhibition | resistance to Pst, co-treatment ([3]; ascr #18 0.3 μM with SA 50 μM, leaf infiltration): further enhanced resistance; also recorded: strongly enhanced resistance | concentration for best/maximal protection against leaf infection (Pst; bacterial and viral pathogens) ([3]; in vivo): 1 µM | resistance to virulent Pst DC3000 (bacterial growth) ([3]; leaf syringe infiltration 0.3 μM 24 hours prior to inoculation, 3 dpi): enhanced resistance; also recorded: low level of protection | resistance to P. syringae pv tomato ([3]; root immersion 0.3 μM, 1 μM, or 5 μM 24 hours prior to inoculation): enhanced resistance | protection against Pst DC3000 ([3]; root immersion 0.3 μM): less effective | protection against Pst DC3000 (bacterial growth) ([3]; root immersion 1 μM, 24 hours before inoculation, 3 dpi): strong protection; also recorded: reduced growth | protection against Pst DC3000 ([3]; root immersion 5 μM): less effective | auxin or ET-regulated defense signaling ([4]; 10 genes): does not strongly affect auxin or ET-regulated defense signaling | SAUR34 expression ([4]; only one of 10 tested genes): enhanced | root expression of FRK1 ([5]; 10 or 50 nM, within 6 hours): induced | root expression of PHI1 ([5]; 10 or 50 nM, within 6 hours): induced | root expression of WRKY53 ([5]; 10 or 50 nM, within 6 hours): induced | FRK1 expression in roots [5, 22]: induces; also recorded: induction | PR-1 expression in roots [5, 22]: induces; also recorded: induction | concentration providing best protection against root infection ([6]; Arabidopsis, root knot nematodes): 10 nM | infection with root knot nematode M. incognita [6, 21]: significantly reduced infection | PR-1 accumulation in presence of SA ([7]; ascr #18 0.01 or 0.3 μM with SA 500 μM or 50 μM, leaf infiltration, vs SA only): enhanced PR-1 accumulation | PR-1 protein accumulation ([7]; tobacco leaves, ascr #18 alone 0.01, 0.3, or 10 μM, syringe infiltration, 48 hours): did not induce PR-1 protein accumulation | PR-1 gene expression, with Bgh inoculation ([8]; 1 μM ascr #18 plus inoculation with Bgh, 16 hpi): further enhanced; also recorded: even higher levels of PR-1 expression | PR-1 gene expression ([8]; barley leaves sprayed, 1 μM, 48 hours): induces PR-1 gene expression; also recorded: induced PR-1 transcript accumulation; also recorded: induction of PR-1 gene | resistance to P. syringae pv tabaci, SA added ([9]; SA 50 μM infiltrated 24 hours after ascr #18 0.01 μM pretreatment): no further enhancement of resistance | resistance to virulent P.t. (bacterial growth) ([9]; ascr #18 0.01 μM alone, leaves (infiltration) or roots (immersion) 24 hours before inoculation, 48 hpi): sufficient to enhance resistance; also recorded: enhanced resistance | virulent P.t. growth, both compounds ([9]; ascr #18 and SA provided simultaneously, vs single treatment): no greater reduction | resistance to P. syringae pv tabaci ([9]; leaf syringe infiltration 0.01 μM, inoculation 48 hours after): enhanced resistance | resistance to P. syringae pv tabaci ([9]; root immersion, ascr #18 0.01 μM or 0.03 μM): enhances resistance | resistance to P. syringae pv tabaci ([9]; spray 0.01 μM 48 hours before inoculation): enhances resistance | resistance to P. syringae pv tabaci, combination ([9]; spray ascr #18 0.01 μM combined with SA 50 μM): did not further increase resistance | resistance to Bgh (number of pustules) [10]: enhances basal resistance; also recorded: increased resistance to Bgh; also recorded: enhanced resistance | β-1,3-glucanase transcript level in leaves ([11]; 24 hpt): enhanced levels | AOS2 transcript level in leaves ([11]; 48 hpt): significantly elevated | GRAS4 transcript level in leaves ([11]; 48 hpt): significantly elevated | GST transcript level in leaves ([11]; 48 hpt): significantly elevated | β-1,3-glucanase transcript level in leaves ([11]; 48 hpt): significantly elevated | PDF1.2 expression, systemic ([12]; a subset of leaves treated): induced PDF1.2 expression in untreated, as well as treated, leaves | PDF1.2 expression ([12]; ascr #18 (0.01 or 0.3 μM), test leaves or roots treated, 24 hours): induces expression of the prototypic JA-responsive PDF1.2 gene; also recorded: altered | PDF1.2 transcripts [12, 23]: elevated; also recorded: Induction | PDF1.2 expression in Arabidopsis [12, 24]: + | growth inhibition [13]: no growth inhibition | FRK1 expression in leaves ([14]; 6 hpt): induced | AOS expression in leaves ([14]; 24 hpt): increased expression | GSTF6 expression in leaves ([14]; 24 hpt): increased expression | LOX2 expression in leaves ([14]; 24 hpt): increased expression | PHI1 expression in leaves ([14]; 24 hpt): induced | PR-4 expression in leaves ([14]; 24 hpt): increased expression | growth of Pst DC3000 in tomato leaves ([15]; higher concentrations than 10 nM): less effective | growth of Pst DC3000 in tomato leaves ([15]; tomato cv. M82, root treatment 10 nM 48 hours before, 4 dpi): significantly reduced the growth | phosphorylation of MPK3 and MPK6 [16]: transient increase in the phosphorylation of both MAPKs; also recorded: Activation | resistance to B. cinerea (lesion size 3 dpi) [17]: did not have a significant effect | growth inhibition [18]: no growth inhibition | media alkalinization (pH of culture medium) [19]: induced media alkalinization in a dose-dependent manner | PR-1 expression ([20]; ascr #18 (0.01 or 0.3 μM) alone, test leaves or roots treated, 24 hours): induces PR-1 expression even in the absence of SA; also recorded: altered | SA-mediated PR-1 expression ([20]; ascr #18 co-applied with SA (50 μM) to leaves or applied through roots): suppresses SA-mediated PR-1 expression | PR-1 transcripts [20, 23]: elevated; also recorded: Induction | PR-1 expression in Arabidopsis [20, 24]: +
